Test results as given in PubChem BioAssay (NCI).
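The concentration for 50% growth inhibition is given as GI50. At the TGI there is no net growth.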

Key:
Assay in all cases: growth of human tumour cells (NCI), 384-well format
[1] = test system: SNB-75 CNS
[2] = test system: HT29 colon
[3] = test system: SNB-19 CNS
[4] = test system: OVCAR-8 ovarian
[5] = test system: PC-3 prostate
[6] = test system: OVCAR-3 ovarian
[7] = test system: OVCAR-5 ovarian
[8] = test system: SK-OV-3 ovarian
[9] = test system: M14 melanoma
[10] = test system: MCF7 breast
[11] = test system: SN12C renal
[12] = test system: NCI-H226 lung
[13] = test system: IGROV1 ovarian
[14] = test system: SW-620 colon
[15] = test system: CAKI-1 renal
[16] = test system: DU-145 prostate
[17] = test system: EKVX NSCLC
[18] = test system: ACHN renal
[19] = test system: LOX IMVI melanoma
[20] = test system: SF-268 CNS
[21] = test system: RPMI-8226 leukemia
[22] = test system: HL-60(TB) leukemia
[23] = test system: U251 glioblastoma
[24] = test system: MOLT-4 leukemia
[25] = test system: K-562 leukemia
[26] = test system: A498 renal
[27] = test system: CCRF-CEM leukemia
[28] = test system: UACC-257 melanoma
[29] = test system: TK-10 renal
[30] = test system: HCT-116 colon
[31] = test system: RXF 393 renal
[32] = test system: NCI/ADR-RES ovarian
[33] = test system: HCT-15 colon
[34] = test system: HOP-62 NSCLC
[35] = test system: BT-549 breast
[36] = test system: HS 578T breast
[37] = test system: SK-MEL-5 melanoma
[38] = test system: SK-MEL-28 melanoma
[39] = test system: SF-295 CNS
[40] = test system: UO-31 renal
[41] = test system: MALME-3M melanoma
[42] = test system: KM12 colon
[43] = test system: SK-MEL-2 melanoma
[44] = test system: OVCAR-4 ovarian
[45] = test system: T-47D breast
[46] = test system: NCI-H23 lung
[47] = test system: COLO 205 colon

## FC(F)(F)c1ccc(CNc2ccc(Cc3c[nH]c4ncc(Cl)cc34)cn2)cn1
[1]
  GI50: 2.73 µM
  TGI: 8.45 µM
[2]
  GI50: 9.79 µM
  TGI: 23 µM
[3]
  GI50: 15.9 µM
  TGI: 30.5 µM
[4]
  GI50: 10.3 µM
  TGI: 23.1 µM
[5]
  GI50: 12.7 µM
  TGI: 25.7 µM
[6]
  GI50: 15.7 µM
  TGI: 29.8 µM
[7]
  GI50: 15.7 µM
  TGI: 29.6 µM
[8]
  GI50: 12 µM
  TGI: 26 µM
[9]
  GI50: 13.3 µM
  TGI: 26.2 µM
[10]
  GI50: 12.5 µM
  TGI: 25.3 µM
[11]
  GI50: 14 µM
  TGI: 27.1 µM
[12]
  GI50: 5.32 µM
  TGI: 16.3 µM
[13]
  GI50: 13.5 µM
  TGI: 27.8 µM
[14]
  GI50: 15.1 µM
  TGI: 28.8 µM
[15]
  GI50: 14.7 µM
  TGI: 28.8 µM
[16]
  GI50: 15.4 µM
  TGI: 29.1 µM
[17]
  GI50: 10.7 µM
  TGI: 23.7 µM
[18]
  GI50: 14.1 µM
  TGI: 30.7 µM
[19]
  GI50: 14.4 µM
  TGI: 27.7 µM
[20]
  GI50: 8.91 µM
  TGI: 21.7 µM
[21]
  GI50: 6.96 µM
  TGI: 19.1 µM
[22]
  GI50: 6.17 µM
  TGI: 16.3 µM
[23]
  GI50: 14.2 µM
  TGI: 27.5 µM
[24]
  GI50: 2.83 µM
  TGI: 9.58 µM
[25]
  GI50: 5.09 µM
  TGI: 17.2 µM
[26]
  GI50: 7.91 µM
  TGI: 19.1 µM
[27]
  GI50: 6.19 µM
  TGI: 17.9 µM
[28]
  GI50: 12.4 µM
  TGI: 25.9 µM
[29]
  GI50: 14.4 µM
  TGI: 28.6 µM
[30]
  GI50: 12.8 µM
  TGI: 25.9 µM
[31]
  GI50: 4.54 µM
  TGI: 14.7 µM
[32]
  GI50: 9.91 µM
  TGI: 21.9 µM
[33]
  GI50: 11.4 µM
  TGI: 23.9 µM
[34]
  GI50: 12.2 µM
  TGI: 25.5 µM
[35]
  GI50: 12.2 µM
  TGI: 25.5 µM
[36]
  GI50: 2.15 µM
  TGI: 7.11 µM
[37]
  GI50: 6.22 µM
  TGI: 18.3 µM
[38]
  GI50: 9 µM
  TGI: 21.7 µM
[39]
  GI50: 11.3 µM
  TGI: 23.7 µM
[40]
  GI50: 11.6 µM
  TGI: 23.9 µM
[41]
  GI50: 8.2 µM
  TGI: 17.4 µM
[42]
  GI50: 4.46 µM
  TGI: 14.2 µM
[43]
  GI50: 7.92 µM
  TGI: 20.4 µM
[44]
  GI50: 9.12 µM
  TGI: 22.2 µM
[45]
  GI50: 4.85 µM
  TGI: 16.1 µM
[46]
  GI50: 11 µM
  TGI: 23 µM
[47]
  GI50: 14.9 µM
  TGI: 28.4 µM
